# Test results: PubChem BioAssay AID1963861 (Molecular Pharmacology Branch, DTP, NCI, 2024)
# Test system: 885724-159-R-J1-PDC KRAS PDC multicell spheroid viability
# Test: Anticancer human tumor 885724-159-R-J1-PDC patient-derived pancreatic adenocarcinoma cell line growth inhibition [KRAS2]
# Details: for IC50: curve of first compound; for viability, T/C: stronger effect = lower value
# How it was run: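 KRAS-mutant tumor cells were grown as spheroids with HUVEC endothelial cells and human MSCs as stroma. Targeted agents were tested alone and with KRAS pathway inhibitors. Doses started at or near clinical Cmax, or 10 microM, descending half-log.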
# [1] = second compound 0.1 µM, first compound 0.000316 µM
# [2] = second compound 0.1 µM, first compound 0.001 µM
# [3] = second compound 0.1 µM, first compound 0.00316 µM
# [4] = second compound 0.1 µM, first compound 0.01 µM
# [5] = second compound 0.1 µM, first compound 0.0316 µM
# [6] = second compound 0.1 µM, first compound 0.1 µM
# [7] = second compound 0.316 µM, first compound 0.000316 µM
# [8] = second compound 0.316 µM, first compound 0.001 µM
# [9] = second compound 0.316 µM, first compound 0.00316 µM
# [10] = second compound 0.316 µM, first compound 0.01 µM
# [11] = second compound 0.316 µM, first compound 0.0316 µM
# [12] = second compound 0.316 µM, first compound 0.1 µM
# [13] = second compound 1 µM, first compound 0.000316 µM
# [14] = second compound 1 µM, first compound 0.001 µM
# [15] = second compound 1 µM, first compound 0.00316 µM
# [16] = second compound 1 µM, first compound 0.01 µM
# [17] = second compound 1 µM, first compound 0.0316 µM
# [18] = second compound 1 µM, first compound 0.1 µM
# [19] = second compound 3.16 µM, first compound 0.000316 µM
# [20] = second compound 3.16 µM, first compound 0.001 µM
# [21] = second compound 3.16 µM, first compound 0.00316 µM
# [22] = second compound 3.16 µM, first compound 0.01 µM
# [23] = second compound 3.16 µM, first compound 0.0316 µM
# [24] = second compound 3.16 µM, first compound 0.1 µM
# [25] = second compound 10 µM, first compound 0.000316 µM
# [26] = second compound 10 µM, first compound 0.001 µM
# [27] = second compound 10 µM, first compound 0.00316 µM
# [28] = second compound 10 µM, first compound 0.01 µM
# [29] = second compound 10 µM, first compound 0.0316 µM
# [30] = second compound 10 µM, first compound 0.1 µM
# [31] = second compound 0.1 µM, first compound 0.316 µM
# [32] = second compound 0.1 µM, first compound 1 µM
# [33] = second compound 0.1 µM, first compound 3.16 µM
# [34] = second compound 0.1 µM, first compound 10 µM
# [35] = second compound 0.316 µM, first compound 0.316 µM
# [36] = second compound 0.316 µM, first compound 1 µM
# [37] = second compound 0.316 µM, first compound 3.16 µM
# [38] = second compound 0.316 µM, first compound 10 µM
# [39] = second compound 1 µM, first compound 0.316 µM
# [40] = second compound 1 µM, first compound 1 µM
# [41] = second compound 1 µM, first compound 3.16 µM
# [42] = second compound 1 µM, first compound 10 µM
# [43] = second compound 3.16 µM, first compound 0.316 µM
# [44] = second compound 3.16 µM, first compound 1 µM
# [45] = second compound 3.16 µM, first compound 3.16 µM
# [46] = second compound 3.16 µM, first compound 10 µM
# [47] = second compound 10 µM, first compound 0.316 µM
# [48] = second compound 10 µM, first compound 1 µM
# [49] = second compound 10 µM, first compound 3.16 µM
# [50] = second compound 10 µM, first compound 10 µM
# 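Note: spheroids exposed to agents for 7 days before readout.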
Compound,IC50 (second compound 0.1 µM) [µM],IC50 (second compound 0.316 µM) [µM],IC50 (second compound 1 µM) [µM],IC50 (second compound 3.16 µM) [µM],IC50 (second compound 10 µM) [µM],"viability, T/C [1] [%]","viability, T/C [2] [%]","viability, T/C [3] [%]","viability, T/C [4] [%]","viability, T/C [5] [%]","viability, T/C [6] [%]","viability, T/C [7] [%]","viability, T/C [11] [%]","viability, T/C [12] [%]","viability, T/C [17] [%]","viability, T/C [18] [%]","viability, T/C [23] [%]","viability, T/C [24] [%]","viability, T/C [29] [%]","viability, T/C [30] [%]",other results
CC(C)n1nc(-c2ccc3oc(N)nc3c2)c2c(N)ncnc21 + C=CC(=O)N1CCN(c2nc(=O)n(-c3c(C)ccnc3C(C)C)c3nc(-c4c(O)cccc4F)c(F)cc23)C(C)C1,0.037,0.038,0.024,0.0137,0.0039,97.8,82.4,74.6,61,50.5,42.7,98.8,51.2,41.6,47.9,40.2,43.7,40.4,40.1,32.9,"viability, T/C [8]: 82.9%; viability, T/C [9]: 72.2%; viability, T/C [10]: 63.9%; viability, T/C [13]: 98.4%; viability, T/C [14]: 77.6%; viability, T/C [15]: 68.8%; viability, T/C [16]: 58.3%; viability, T/C [19]: 112%; viability, T/C [20]: 77.4%; viability, T/C [21]: 68.3%; viability, T/C [22]: 51.5%; viability, T/C [25]: 74.7%; viability, T/C [26]: 59%; viability, T/C [27]: 49.9%; viability, T/C [28]: 46.1%"
CC1(C)CCC(CN2CCN(c3ccc(C(=O)NS(=O)(=O)c4ccc(NCC5CCOCC5)c([N+](=O)[O-])c4)c(Oc4cnc5[nH]ccc5c4)c3)CC2)=C(c2ccc(Cl)cc2)C1 + C=CC(=O)N1CCN(c2nc(=O)n(-c3c(C)ccnc3C(C)C)c3nc(-c4c(O)cccc4F)c(F)cc23)C(C)C1,7.09,7.14,5.36,9.7,5.48,,,,,111,118,,117,114,122,117,109,120,91.1,68.7,"viability, T/C [31]: 114%; viability, T/C [32]: 108%; viability, T/C [33]: 91.2%; viability, T/C [34]: 32.3%; viability, T/C [35]: 111%; viability, T/C [36]: 114%; viability, T/C [37]: 89.3%; viability, T/C [38]: 33.8%; viability, T/C [39]: 118%; viability, T/C [40]: 112%; viability, T/C [41]: 72.8%; viability, T/C [42]: 23.1%; viability, T/C [43]: 113%; viability, T/C [44]: 114%; viability, T/C [45]: 80.8%; viability, T/C [46]: 49.2%; viability, T/C [47]: 76.9%; viability, T/C [48]: 77.8%; viability, T/C [49]: 65.3%; viability, T/C [50]: 33%"
COc1cc2nccc(Oc3ccc(NC(=O)C4(C(=O)Nc5ccc(F)cc5)CC4)cc3)c2cc1OC + C=CC(=O)N1CCN(c2nc(=O)n(-c3c(C)ccnc3C(C)C)c3nc(-c4c(O)cccc4F)c(F)cc23)C(C)C1,> 10,> 10,> 10,> 10,2.4,,,,,123,125,,124,117,118,122,117,122,75.6,72.2,"viability, T/C [31]: 142%; viability, T/C [32]: 113%; viability, T/C [33]: 81.4%; viability, T/C [34]: 75.6%; viability, T/C [35]: 117%; viability, T/C [36]: 126%; viability, T/C [37]: 90.4%; viability, T/C [38]: 77.7%; viability, T/C [39]: 114%; viability, T/C [40]: 126%; viability, T/C [41]: 86.4%; viability, T/C [42]: 77.6%; viability, T/C [43]: 123%; viability, T/C [44]: 106%; viability, T/C [45]: 78.6%; viability, T/C [46]: 77.7%; viability, T/C [47]: 62.3%; viability, T/C [48]: 86.2%; viability, T/C [49]: 35.8%; viability, T/C [50]: 48.9%"
Cn1ncnc1[C@H]1c2n[nH]c(=O)c3cc(F)cc(c23)N[C@@H]1c1ccc(F)cc1 + C=CC(=O)N1CCN(c2nc(=O)n(-c3c(C)ccnc3C(C)C)c3nc(-c4c(O)cccc4F)c(F)cc23)C(C)C1,> 0.1,> 0.1,> 0.1,> 0.1,> 0.1,105,107,103,110,111,92,118,108,94,104,96.8,108,105,82.2,78.4,"viability, T/C [8]: 115%; viability, T/C [9]: 113%; viability, T/C [10]: 113%; viability, T/C [13]: 111%; viability, T/C [14]: 106%; viability, T/C [15]: 117%; viability, T/C [16]: 107%; viability, T/C [19]: 106%; viability, T/C [20]: 108%; viability, T/C [21]: 106%; viability, T/C [22]: 105%; viability, T/C [25]: 89.3%; viability, T/C [26]: 97.4%; viability, T/C [27]: 93%; viability, T/C [28]: 86%"
